Reference: PubChem BioAssay AID248 (DTP/NCI, 2004)
Values joined by “and” are separate entries in the source; they are usually repeats but may differ in a detail not shown here. Identical values can stand only once. Toxic doses and inconclusive results are not listed. Rule as the data show it: active = T/C of 150% or more; inactive = T/C below 125%.

Test system: L1210 leukemia ip in BDF1 mice, survival T/C
Experiment: NCI In Vivo Anticancer Drug Screen. Data for tumor model L1210 Leukemia (intraperitoneal) in B6D2F1 (BDF1) mice
Conditions: endpoint: mean survival time, higher = longer survival
In short: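 Mice bearing the transplanted tumor received compound or vehicle. Survival of the treated group was divided by that of the vehicle-treated control group to give the ratio.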

[1] = dose: 100.0 mg/kg/injection, schedule: Q01DX009 (ip), vehicle: saline
[2] = dose: 200.0 mg/kg/injection, schedule: Q01DX009 (ip), vehicle: saline
[3] = dose: 100.0 mg/kg/injection, schedule: Q01DX001 (ip), vehicle: saline
[4] = dose: 200.0 mg/kg/injection, schedule: Q01DX001 (ip), vehicle: saline
[5] = dose: 400.0 mg/kg/injection, schedule: Q01DX001 (ip), vehicle: saline
[6] = dose: 100.0 mg/kg/injection, schedule: Q04DX003 (ip), vehicle: saline
[7] = dose: 200.0 mg/kg/injection, schedule: Q04DX003 (ip), vehicle: saline
[8] = dose: 100.0 mg/kg/injection, schedule: Q01DX009 (ip), vehicle: Klucel (hydroxypropylcellulose) (HPC)
[9] = dose: 100.0 mg/kg/injection, schedule: Q04DX003 (ip), vehicle: Klucel (hydroxypropylcellulose) (HPC)
[10] = dose: 200.0 mg/kg/injection, schedule: Q01DX009 (ip), vehicle: Klucel (hydroxypropylcellulose) (HPC)
[11] = dose: 200.0 mg/kg/injection, schedule: Q04DX003 (ip), vehicle: Klucel (hydroxypropylcellulose) (HPC)
[12] = dose: 400.0 mg/kg/injection, schedule: Q01DX009 (ip), vehicle: Klucel (hydroxypropylcellulose) (HPC)
[13] = dose: 400.0 mg/kg/injection, schedule: Q04DX003 (ip), vehicle: Klucel (hydroxypropylcellulose) (HPC)
[14] = dose: 50.0 mg/kg/injection, schedule: Q01DX009 (ip), vehicle: Klucel (hydroxypropylcellulose) (HPC)
[15] = dose: 50.0 mg/kg/injection, schedule: Q01DX009 (ip), vehicle: saline
[16] = dose: 100.0 mg/kg/injection, schedule: Q01DX009 (ip), vehicle: saline with Tween-80
[17] = dose: 100.0 mg/kg/injection, schedule: Q04DX003 (ip), vehicle: saline with Tween-80
[18] = dose: 200.0 mg/kg/injection, schedule: Q01DX009 (ip), vehicle: saline with Tween-80
[19] = dose: 200.0 mg/kg/injection, schedule: Q04DX003 (ip), vehicle: saline with Tween-80
[20] = dose: 400.0 mg/kg/injection, schedule: Q01DX009 (ip), vehicle: saline with Tween-80
[21] = dose: 400.0 mg/kg/injection, schedule: Q04DX003 (ip), vehicle: saline with Tween-80

Measured: T/C

Nc1ccc2cn[nH]c2c1
inactive: dose: 50.0 mg/kg/injection, schedule: Q04DX002 (ip), vehicle: saline with Tween-80 100 % of control | dose: 100.0 mg/kg/injection, schedule: Q01DX009 (ip), vehicle: water 104 % of control | dose: 100.0 mg/kg/injection, schedule: Q04DX002 (ip), vehicle: saline with Tween-80 100 % of control | dose: 100.0 mg/kg/injection, schedule: Q04DX003 (ip), vehicle: water 96 % of control | dose: 200.0 mg/kg/injection, schedule: Q01DX009 (ip), vehicle: water 111 % of control | dose: 200.0 mg/kg/injection, schedule: Q04DX002 (ip), vehicle: saline with Tween-80 106 % of control | dose: 200.0 mg/kg/injection, schedule: Q04DX003 (ip), vehicle: water 94 % of control | dose: 400.0 mg/kg/injection, schedule: Q04DX003 (ip), vehicle: water 100 % of control

Cn1ccc(=O)nc1
inactive: [1] 94 % of control | [2] 103 % of control | dose: 400.0 mg/kg/injection, schedule: Q01DX009 (ip), vehicle: saline 100 % of control

COC(=O)[C@@H]1[C@H](O)[C@H](C)[C@H](O)[C@H](C)/C=C\C=C(C)C(=O)Nc2c(C)c(OC(C)=O)c3c(c2O)C(=O)C(C)=C2OCOC(=C23)C(C)=C[C@@](C)(O)[C@H](O)[C@@H](C)[C@H]1OC(C)=O
inactive: dose: 100.0 mg/kg/injection, schedule: Q04DX002 (ip), vehicle: Klucel (hydroxypropylcellulose) (HPC) 96 % of control | dose: 200.0 mg/kg/injection, schedule: Q04DX002 (ip), vehicle: Klucel (hydroxypropylcellulose) (HPC) 101 % of control | dose: 400.0 mg/kg/injection, schedule: Q04DX002 (ip), vehicle: Klucel (hydroxypropylcellulose) (HPC) 101 % of control

C/C(CCc1ccccc1)=N/N(C)C
inactive: [3] 97 % of control | [1] 94 % of control | [4] 95 % of control | [2] 91 % of control | [5] 96 % of control

Cc1ccc(S(=O)(=O)OCC2OC(n3cnc4c(N)ncnc43)C(O)C2O)cc1 (stereo unspecified)
inactive: dose: 100.0 mg/kg/injection, schedule: Q01DX005 (ip), vehicle: saline 105 % of control | dose: 200.0 mg/kg/injection, schedule: Q01DX005 (ip), vehicle: saline 95 % of control

OC(c1ccccc1)(c1ccccc1)C(F)(Cl)Cl
inactive: [6] 101 % of control | [7] 94 % of control | dose: 400.0 mg/kg/injection, schedule: Q04DX003 (ip), vehicle: saline 90 % of control

O=C(OC1c2ccccc2-c2ccccc21)c1cc([N+](=O)[O-])cc([N+](=O)[O-])c1
inactive: dose: 100.0 mg/kg/injection, schedule: Q04DX002 (ip), vehicle: saline 97 % of control | dose: 200.0 mg/kg/injection, schedule: Q04DX002 (ip), vehicle: saline 97 % of control | dose: 400.0 mg/kg/injection, schedule: Q04DX002 (ip), vehicle: saline 90 % of control

CCN(CC)Cc1cc(N)ccc1O
inactive: [1] 106 % of control | [2] 89 % of control

O=C(O)C(CSC(c1ccccc1)c1ccccc1)NC(=O)C(c1ccccc1)c1ccccc1 (stereo unspecified)
inactive: [8] 112 % of control | [9] 97 % of control | [10] 101 % of control | [11] 99 % of control | [12] 98 % of control | [13] 94 % of control

Cc1cc2c(-c3ccccc3)nc3ccccc3n2c1Cl
inactive: [14] 92 % of control | [8] 95 % of control | [10] 103 % of control

CC(C)C(C(=O)c1ccccc1)C(Cl)c1ccccc1 (stereo unspecified)
inactive: dose: 100.0 mg/kg/injection, schedule: Q04DX003 (ip), vehicle: other 94 % of control | dose: 200.0 mg/kg/injection, schedule: Q04DX003 (ip), vehicle: other 102 % of control | dose: 400.0 mg/kg/injection, schedule: Q04DX003 (ip), vehicle: other 93 % of control

O=C(O)/C(=C\CCCCCC/C=C(\CCO)C(=O)O)CCO
inactive: [8] 98 % of control | [9] 96 % of control | [10] 91 % of control | [11] 93 % of control | [12] 89 % of control | [13] 93 % of control

CC1NC1(c1ccccc1)[n+]1ccccc1 (stereo unspecified)
inactive: [15] 97 % of control | [1] 95 % of control | [6] 105 % of control | [7] 105 % of control

Nc1ncnc2n[nH]nc12
inactive: [14] 104 % of control | [8] 106 % of control

CCCCCCCCCCC[As](=O)(O)CCCCCCCCCCC
inactive: dose: 50.0 mg/kg/injection, schedule: Q01DX001 (ip), vehicle: saline 103 % of control | [3] 97 % of control | [4] 103 % of control | [5] 101 % of control

COc1cc(C(C)O)cc(OC)c1OC (stereo unspecified)
inactive: [16] 101 % of control | [17] 101 % of control | [18] 98 % of control | [19] 100 % of control | [20] 93 % of control | [21] 99 % of control

O=C(CC(O)(C(F)(F)F)C(F)(F)F)c1ccccc1[N+](=O)[O-]
inactive: dose: 12.5 mg/kg/injection, schedule: Q01DX009 (ip), vehicle: DMSO 94 % of control | dose: 12.5 mg/kg/injection, schedule: Q04DX003 (ip), vehicle: DMSO 97 % of control | dose: 25.0 mg/kg/injection, schedule: Q01DX009 (ip), vehicle: DMSO 86 % of control | dose: 25.0 mg/kg/injection, schedule: Q04DX003 (ip), vehicle: DMSO 95 % of control | dose: 50.0 mg/kg/injection, schedule: Q04DX003 (ip), vehicle: DMSO 110 % of control | dose: 100.0 mg/kg/injection, schedule: Q04DX003 (ip), vehicle: DMSO 102 % of control

COC(=O)CC/C(C)=N\NC(=O)c1ccc[n+](C)c1
inactive: [15] 100 % of control | [1] 96 % of control | [2] 93 % of control

S=C(NCc1ccncc1)Nc1ccccc1Cl
inactive: [8] 101 % of control | [10] 95 % of control | [12] 98 % of control

Cc1ccc(S(=O)(=O)OC2CS(=O)(=O)C2)cc1
inactive: [16] 100 % of control | [17] 105 % of control | [18] 95 % of control | [19] 100 % of control | [20] 105 % of control | [21] 97 % of control

Cc1cc(N=Nc2c(C)ccc3ncccc23)ccc1N
inactive: dose: 3.12 mg/kg/injection, schedule: Q01DX001 (ip), vehicle: DMSO 90 % of control | dose: 6.25 mg/kg/injection, schedule: Q01DX001 (ip), vehicle: DMSO 98 % of control | dose: 12.5 mg/kg/injection, schedule: Q01DX001 (ip), vehicle: DMSO 98 % of control

CC(C)CC(Br)C(=O)NC(CC(C)C)C(=O)O (stereo unspecified)
inactive: [16] 96 % of control | [18] 88 % of control | [20] 92 % of control

O=C(N/N=C/c1ccccn1)C1CCCO1 (stereo unspecified)
inactive: dose: 25.0 mg/kg/injection, schedule: Q01DX009 (ip), vehicle: saline 102 % of control | [15] 102 % of control | [1] 98 % of control and 116 % of control | [2] 117 % of control

Cc1cc2oc(/C=N/Nc3ccc([N+](=O)[O-])cc3[N+](=O)[O-])c(C)c2cc1C
inactive: [8] 94 % of control | [10] 94 % of control | [12] 89 % of control

CCn1c(=O)cn[nH]c1=O
inactive: [15] 97 % of control | [1] 97 % of control | [2] 94 % of control

CCOC(=O)C1(C(=O)OCC)C(C)CC(O)N1C(=O)c1ccccc1[N+](=O)[O-] (stereo unspecified)
inactive: dose: 25.0 mg/kg/injection, schedule: Q04DX003 (ip), vehicle: Klucel (hydroxypropylcellulose) (HPC) 100 % of control | dose: 50.0 mg/kg/injection, schedule: Q04DX003 (ip), vehicle: Klucel (hydroxypropylcellulose) (HPC) 91 % of control | [9] 92 % of control

CC1(c2cccc3ccccc23)OCC2(CCC2)CO1
inactive: dose: 100.0 mg/kg/injection, schedule: Q01DX001 (ip), vehicle: Klucel (hydroxypropylcellulose) (HPC) 102 % of control | dose: 200.0 mg/kg/injection, schedule: Q01DX001 (ip), vehicle: Klucel (hydroxypropylcellulose) (HPC) 98 % of control | dose: 400.0 mg/kg/injection, schedule: Q01DX001 (ip), vehicle: Klucel (hydroxypropylcellulose) (HPC) 100 % of control

CCCCC1C/C=C/C=C/C=C/C=C/C(OC2OC(C)C(O)C(N)C2O)CC2OC(O)(CC(O)CC3OC3/C=C/C(=O)O1)CC(O)C2C(=O)O (stereo unspecified)
inactive: [9] 96 % of control | [11] 98 % of control | [13] 107 % of control
